# In PMC5701947, “β1-Adrenergic Receptor Contains Multiple IA^k and IE^k Binding Epitopes That Induce T Cell Responses with Varying Degrees of Autoimmune Myocarditis in A/J Mice” (Frontiers in Immunology, 2017):
# Tested on: T cells (lymph node cells/splenocytes from immunized animals)
# Test: T cell proliferation assay ([3H]-thymidine)
# Assay type: cell-based, A/J mice
# Conditions: fold vs medium control
# Description: At termination, lymph nodes (maxillary, mandibular, axillary, inguinal, and popliteal) and spleens were harvested from immunized animals to prepare single cell suspensions. Similarly, splenocytes were prepared from naive animals. After lysing the erythrocytes and washing, cell pellets were suspended in RPMI medium containing 10% fetal bovine serum, 1 mM sodium pyruvate, 4 mM L-glutamine, 1 × each of non-essential amino acids and vitamin mixture, and 100 U/ml penicillin–streptomycin (Lonza, Walkersville, MD, USA; hereafter called growth medium). In some experiments, CD4 T cells and CD8 T cells were enriched to a purity of ~95% by negative selection based on magnetic separation using IMAG (BD Biosciences, San Jose, CA, USA) ([31]). To stimulate CD4 and CD8 T cells, syngeneic naive irradiated splenocytes loaded with peptides were used as antigen-presenting cells at a ratio of 1:1. Cells were stimulated at a density of ~5 × 10^6 cells/ml in triplicates with or without the immunizing peptides (0–100 µg/ml) in growth medium. RNase 43–56 or HEL 46–61 were used as irrelevant controls. After 2 days, cells were pulsed with tritiated ^3[H]-thymidine (1 μCi/well; MP Biomedicals, Santa Ana, CA, USA), and 16 h later, proliferative responses were measured as counts per minute (cpm) using a Wallac liquid scintillation counter (Perkin Elmer, Waltham, MA, USA) ([26], [28], [30]).
# [1] = 10 μg/ml, animals immunized with pool VI
# [2] = 100 μg/ml, animals immunized with pool VI
# [3] = 10 μg/ml, animals immunized with pool II
# [4] = 100 μg/ml, animals immunized with pool II
# [5] = 10 μg/ml, animals immunized with pool I
# [6] = 100 μg/ml, animals immunized with pool I
# [7] = 10 μg/ml, animals immunized with pool VIII
# [8] = 100 μg/ml, animals immunized with pool VIII
# [9] = 10 μg/ml, animals immunized with pool VII
# [10] = 100 μg/ml, animals immunized with pool VII
# [11] = 10 μg/ml, animals immunized with pool V
# [12] = 100 μg/ml, animals immunized with pool V
# [13] = 10 μg/ml, animals immunized with pool IX
# [14] = 100 μg/ml, animals immunized with pool IX
# [15] = 10 μg/ml, animals immunized with pool III
# [16] = 100 μg/ml, animals immunized with pool III
substance,measurement,setting,value
"β1AR 311-330: 20-mer of mouse β1AR peptide library (ALKTLGIIMGVFTLCWLPFF; UniProt P34971 311-330, looked up, fragment)",T cell responses,[1],1.30 fold
same,T cell responses,[2],1.21 fold
"β1AR 301-320: 20-mer of mouse β1AR peptide library (SRLVALREQKALKTLGIIMG; UniProt P34971 301-320, looked up, fragment)",T cell responses,[1],2.03 fold
same,T cell responses,[2],1.93 fold
"β1AR 91-110: 20-mer of mouse β1AR peptide library (TLTNLFIMSLASADLVMGLL; UniProt P34971 91-110, looked up, fragment)",T cell responses,[3],1.67 fold
same,T cell responses,[4],1.93 fold
"β1AR 31-50: 20-mer of mouse β1AR peptide library (RLLVLASPPASLLPPASEGS; UniProt P34971 31-50, looked up, fragment)",T cell responses,[5],0.97 fold
same,T cell responses,[6],1.30 fold
"β1AR 371-390: 20-mer of mouse β1AR peptide library (DFRKAFQRLLCCARRAACRR; UniProt P34971 371-390, looked up, fragment)",T cell responses,[7],1.14 fold
same,T cell responses,[8],0.60 fold
"β1AR 361-380: 20-mer of mouse β1AR peptide library (FNPIIYCRSPDFRKAFQRLL; UniProt P34971 361-380, looked up, fragment)",T cell responses,[9],2.06 fold
same,T cell responses,[10],1.82 fold
"β1AR 221-240: 20-mer of mouse β1AR peptide library (NRAYAIASSVVSFYVPLCIM; UniProt P34971 221-240, looked up, fragment)",T cell responses,[11],1.18 fold
same,T cell responses,[12],1.01 fold
"β1AR 341-360: 20-mer of mouse β1AR peptide library (DLVPDRLFVFFNWLGYANSA; UniProt P34971 341-360, looked up, fragment)",T cell responses,[9],1.02 fold
same,T cell responses,[10],1.47 fold
"β1AR 451-466: 16-mer of mouse β1AR peptide library (SLDEPGRQGFSSESKV; UniProt P34971 451-466, looked up, fragment)",T cell responses,[13],0.95 fold
same,T cell responses,[14],1.16 fold
"β1AR 21-40: 20-mer of mouse β1AR peptide library (PLPDGAATAARLLVLASPPA; UniProt P34971 21-40, looked up, fragment)",T cell responses,[5],1.33 fold
same,T cell responses,[6],1.43 fold
"β1AR 121-140: 20-mer of mouse β1AR peptide library (WGRWEYGSFFCELWTSVDVL; UniProt P34971 121-140, looked up, fragment)",T cell responses,[15],1.08 fold
same,T cell responses,[16],1.26 fold
"β1AR 161-180: 20-mer of mouse β1AR peptide library (TSPFRYQSLLTRARARALVC; UniProt P34971 161-180, looked up, fragment)",T cell responses,[15],1.03 fold
same,T cell responses,[16],1.29 fold
"β1AR 411-430: 20-mer of mouse β1AR peptide library (PSPGAPSDDDDDDAGTTPPA; UniProt P34971 411-430, looked up, fragment)",T cell responses,[7],0.93 fold
same,T cell responses,[8],0.94 fold
"β1AR 81-100: 20-mer of mouse β1AR peptide library (VAIAKTPRLQTLTNLFIMSL; UniProt P34971 81-100, looked up, fragment)",T cell responses,[3],1.65 fold
same,T cell responses,[4],2.36 fold
"BAR 101-120: 20-mer of mouse β1AR peptide library (ASADLVMGLLVVPFGATIVV; UniProt P34971 101-120, looked up, fragment)",T cell responses,[3],1.01 fold
same,T cell responses,[4],1.02 fold
"β1AR 431-450: 20-mer of mouse β1AR peptide library (RLLEPWTGCNGGTTTVDSDS; UniProt P34971 431-450, looked up, fragment)",T cell responses,[13],1.14 fold
same,T cell responses,[14],1.18 fold
"β1AR 421-440: 20-mer of mouse β1AR peptide library (DDDAGTTPPARLLEPWTGCN; UniProt P34971 421-440, looked up, fragment)",T cell responses,[13],1.12 fold
same,T cell responses,[14],1.21 fold
"β1AR 11-30: 20-mer of mouse β1AR peptide library (SEPCNLSSAAPLPDGAATAA; UniProt P34971 11-30, looked up, fragment)",T cell responses,[5],1.84 fold
same,T cell responses,[6],2.06 fold
"β1AR 71-90: 20-mer of mouse β1AR peptide library (LIVVGNVLVIVAIAKTPRLQ; UniProt P34971 71-90, looked up, fragment)",T cell responses,[3],2.71 fold
same,T cell responses,[4],3.78 fold
"β1AR 1-20: 20-mer of mouse β1AR peptide library (MGAGALALGASEPCNLSSAA; UniProt P34971 1-20, looked up, fragment)",T cell responses,[5],1.52 fold
same,T cell responses,[6],1.90 fold
"β1AR 321-340: 20-mer of mouse β1AR peptide library (VFTLCWLPFFLANVVKAFHR; UniProt P34971 321-340, looked up, fragment)",T cell responses,[9],3.23 fold
same,T cell responses,[10],2.21 fold
"β1AR 51-70: 20-mer of mouse β1AR peptide library (APLSQQWTAGMGLLLALIVL; UniProt P34971 51-70, looked up, fragment)",T cell responses,[3],1.10 fold
same,T cell responses,[4],1.38 fold
"β1AR 241-260: 20-mer of mouse β1AR peptide library (AFVYLRVFREAQKQVKKIDS; UniProt P34971 241-260, looked up, fragment)",T cell responses,[11],1.52 fold
same,T cell responses,[12],2.02 fold
"β1AR 41-60: 20-mer of mouse β1AR peptide library (SLLPPASEGSAPLSQQWTAG; UniProt P34971 41-60, looked up, fragment)",T cell responses,[5],0.84 fold
same,T cell responses,[6],1.10 fold
"β1AR 291-310: 20-mer of mouse β1AR peptide library (ANGRSSKRRPSRLVALREQK; UniProt P34971 291-310, looked up, fragment)",T cell responses,[1],0.87 fold
same,T cell responses,[2],1.66 fold
"β1AR 401-420: 20-mer of mouse β1AR peptide library (SGCLARAGPPPSPGAPSDDD; UniProt P34971 401-420, looked up, fragment)",T cell responses,[7],0.90 fold
same,T cell responses,[8],0.88 fold
"β1AR 441-460: 20-mer of mouse β1AR peptide library (GGTTTVDSDSSLDEPGRQGF; UniProt P34971 441-460, looked up, fragment)",T cell responses,[13],0.79 fold
same,T cell responses,[14],1.01 fold
"β1AR 231-250: 20-mer of mouse β1AR peptide library (VSFYVPLCIMAFVYLRVFRE; UniProt P34971 231-250, looked up, fragment)",T cell responses,[11],1.42 fold
same,T cell responses,[12],1.85 fold
"β1AR 331-350: 20-mer of mouse β1AR peptide library (LANVVKAFHRDLVPDRLFVF; UniProt P34971 331-350, looked up, fragment)",T cell responses,[9],1.05 fold
same,T cell responses,[10],1.49 fold
"β1AR 251-270: 20-mer of mouse β1AR peptide library (AQKQVKKIDSCERRFLGGPA; UniProt P34971 251-270, looked up, fragment)",T cell responses,[11],1.12 fold
same,T cell responses,[12],1.81 fold
"β1AR 151-170: 20-mer of mouse β1AR peptide library (VIALDRYLAITSPFRYQSLL; UniProt P34971 151-170, looked up, fragment)",T cell responses,[15],2.24 fold
same,T cell responses,[16],2.43 fold
"β1AR 351-370: 20-mer of mouse β1AR peptide library (FNWLGYANSAFNPIIYCRSP; UniProt P34971 351-370, looked up, fragment)",T cell responses,[9],1.86 fold
same,T cell responses,[10],1.82 fold
"β1AR 281-300: 20-mer of mouse β1AR peptide library (PGPPRPADSLANGRSSKRRP; UniProt P34971 281-300, looked up, fragment)",T cell responses,[1],0.92 fold
same,T cell responses,[2],0.93 fold
"β1AR 271-290: 20-mer of mouse β1AR peptide library (RPPSPEPSPSPGPPRPADSL; UniProt P34971 271-290, looked up, fragment)",T cell responses,[1],1.05 fold
same,T cell responses,[2],1.13 fold
